“Also recorded” adds a separate entry of the source. No end group written: not given here.
Columns and labels:
[1] = test system: Dextran Sodium Sulphate induced colitis; assay: therapeutic murine 14-day Dextran Sodium Sulphate induced colitis model (Example 5); type: in vivo, C57BL/6 mice
Experimental: Anti-inflammatory effect of s.c. administration of hBD2 versus intraperitoneal anti TNF-α and intraperitoneal dexamethasone in a therapeutic, murine, 14-day, Dextran Sodium Sulphate induced colitis model.
70 male C57BL/6 mice housed in groups of five per cage were allocated to 7 different treatment groups. All animals had their drinking water supplemented with DSS 2% for 14 days to induce colitis resulting in significant inflammation and injury of the colonic tissue. The animals were treated with hBD2, 0.1 mg/kg s.c. BID; 0.1 mg/kg s.c. OD or 1.2 mg/kg i.v. […]
A disease activity index (DAI) scoring system was applied for clinical assessment (FIG. 7). The animals were sacrificed on day 14 and colon removed for histological assessment employing a histological scoring system (FIG. 8)

[2] = test system: acute graft versus host disease following stem cell transplantation; assay: prophylactic oral hBD-2 in murine model of acute graft versus host disease following stem cell transplantation (Example 13); type: in vivo, BALB/c mice; settings: for IL-1β from myeloid cells: CD11c+ dendritic cells and CD11b+ Ly6FG− cells; for infiltration with CD45+ leucocytes (FACS analysis): lamina propria of colon (FIG. 50: colon and small intestine); for intestinal T cell and myeloid cell infiltration: lamina propria of the colon (FIG. 51: colon and small intestine)
Experimental: To determine and assess the efficacy of prophylactic treatment with oral hBD-2 in a murine model of acute graft versus host disease following stem cell transplantation.
Treatment regime: 12 female BALB/c mice were irradiated with 4.5 Gy (2×498 sec) at intervals of at least 4 hours on day 0. Bone marrow was harvested: hind limbs harvested from 2 female WT C57BL/6 mice aseptically. Skeletal muscle was removed and epiphysis cut away. Lumen of bone flushed with PBS and cells pelleted and taken up. Harvest of T-cells: spleens from 2 female WT C57BL/6 mice were meshed through a 100 μM cell strainer into a PBS filled dish. Cells were taken up in PBS and transferred into a 50 mL falcon tube and spun down. Cells were taken up in 1 mL PBS and 20 μL of CD4 microbead+20 μL CD8 microbeads per spleen added for incubation for 20 min at 4 degrees C. Cells were washed with PBS and applied to MACS separation in order to positively select CD4+ and CD8+ cells. Positively selected T-cells were counted and taken up. Transplantation: directly after the second irradiation, all WT BALB/c recipient mice were injected with 5×1.000.000 BM cells (50 μL) i.v. into the retroorbital venous plexus under isoflurane anesthesia. 15 BALB/c mice were treated with 1.2 mg of hBD2/kg BW/day in 100 μL PBS per day vial oral gavage from day 0-10.
15 BALB/c mice received vehicle 100 μL PBS per day via oral gavage from day 0-10.
The mice were weighed daily for the initial 7 days and survival was monitored for 100 days.

[3] = test system: acute graft versus host disease following stem cell transplantation; assay: prophylactic oral HD5 or hBD-2 in murine model of acute graft versus host disease (Example 15); type: in vivo, BALB/c mice
Experimental: To determine and assess the efficacy of prophylactic treatment with oral HD5 in a murine model of acute graft versus host disease following stem cell transplantation.
Treatment regime: 22 female BALB/c mice were irradiated with 4.5 Gy (2×498 sec) at intervals of at least 4 hours on day 0. Bone marrow was harvested: hind limbs harvested from 2 female WT C57BL/6 mice aseptically. Skeletal muscle was removed and epiphysis cut away. Lumen of bone flushed with PBS and cells pelleted and taken up. Harvest of T-cells: spleens from 2 female WT C57BL/6 mice were meshed through a […] cell strainer into a PBS filled dish. Cells were taken up in PBS and transferred into a 50 mL falcon tube and spun down. Cells were taken up in 1 mL PBS and 20 μL of CD4 microbead+20 μL CD8 microbeads per spleen added for incubation for 20 min at 4 degrees C. Cells were washed with PBS and applied to MACS separation in order to positively select CD4+ and CD8+ cells. Positively selected T-cells were counted and taken up. Transplantation: directly after the second irradiation, all WT BALB/c recipient mice were injected with 5×1.000.000 BM cells (50 μL) i.v. into the retroorbital venous plexus under isoflurane anesthesia. 22 BALB/c mice were treated with 1.2 mg of HD5/kg BW/day; 1.2 mg of hBD-2/kg BW/day or 100 μL of PBS per day vial oral gavage from day 0-10.
Survival was monitored for 60 days.

[4] = oral hBD2 1.2 mg/kg/day day 0-10, 15 mice
[5] = oral hBD-2 for 10 days versus PBS

human beta defensin 2 (GIGDPVTCLKSGAICHPVFCPRRYKQIGTCGLPGTKCCKKP; not fully specified (bridges); ends and bridges not checked; listed as Homo sapiens) [hBD2]
histological score, compared with references ([1]; FIG. 16, hBD2 0.1 mg/kg versus dexamethasone 1 mg/kg and mouse anti TNF-α 300 μg/mouse): on par with dexamethasone 1 mg/kg and superior to mouse anti TNF-α 300 μg/mouse
disease activity index (DAI) ([1]; hBD2 0.1 mg s.c. OD, Dexamethasone 1 mg/kg i.p. OD, day 8 to day 14): statistically significant effect on DAI
histological score ([1]; hBD2 0.1 mg/kg s.c. OD, Dexamethasone 1 mg/kg i.p. OD, colon day 14): statistically significant effect on histological score; also recorded: statistical significant effect
Th1 cytokine production (TNF-α and IFN-γ in CD4 and CD8 T cells) ([2]; FACS analysis of the spleen): reduced Th 1 cytokine production; also recorded: reduced Th1 cytokine production
neutrophils ([2]; FACS analysis of the spleen): Reduced proportion of neutrophils; also recorded: reduced number of neutrophils
IL-1β from myeloid cells ([2]; FACS analysis of the spleen): decrease the production of IL-1β
IL-1β from myeloid cells ([2]; FACS analysis of the spleen, listed as hBD-2): reduction of IL-1β from myeloid cells; also recorded: Reduced IL-1β production
weight loss ([2]; first 7 days following bone marrow transplantation): lost statistically significantly less weight
survival (Kaplan-Meyer plot) ([2]; hBD2 1.2 mg/kg/day day 0 to day 10 versus vehicle, n=15): dramatically increased survival
microarray analysis of colon samples ([2]; hBD-2 treated group versus PBS): decreased inflammation, leucocyte and myeloid cell migration and tissue remodelling
infiltration with CD45+ leucocytes (FACS analysis) [2]: reduced the infiltration
infiltration with CD45+ leucocytes (FACS analysis) ([2]; listed as hBD-2): Reduced CD45+ leucocyte cell migration
intestinal T cell and myeloid cell infiltration [2]: reduced
intestinal T cell and myeloid cell infiltration ([2]; listed as hBD-2): Reduction of intestinal T cell and myeloid cell infiltration
mice still alive by day 100 [2, 4]: 8 mice
share of treated mice that had died by day 35 [2, 4]: less than 30%
treated mice that had died by day 35 ([2]; oral hBD2 1.2 mg/kg/day day 0-10, 15 mice, all 15 vehicle mice had died by day 35): 4
histology score of the colon [2, 5]: highly statistically lower; also recorded: statistically significant reduction of histology score
histology score of the liver [2, 5]: highly statistically lower; also recorded: statistically significant reduction of histology score
histology score of the small intestine [2, 5]: highly statistically lower; also recorded: statistically significant reduction of histology score
TNF-α concentration ([2]; serum (FIG. 52a)): reduction
IL-6 concentration ([2]; serum (FIG. 52b)): reduction
IL-10 concentration ([2]; serum (FIG. 52c)): increased concentration of IL-10
mortality ([3]; FIG. 58, oral treatment for 10 days from day of stem cell transplantation): significant reduction of mortality
treated animals that had died by day 60 ([3]; oral 1.2 mg/kg/day day 0-10, six out of eight PBS mice died): none
